We go through four compounds from ChEMBL document CHEMBL5046254, “Mycobactin Analogues with Excellent Pharmacokinetic Profile Demonstrate Potent Antitubercular Specific Activity and Exceptional Efflux Pump Inhibition” (J Med Chem, 2022).

By MIC90 is commonly meant an inhibitory concentration at the 90% level, which refers to growth in some studies and to a panel of isolates in others.

Values after ≈ are worked out from the molar mass of the structure shown.

The subject of test [1] is Mycobacterium tuberculosis variant bovis. In words: Antimicrobial activity against Mycobacterium bovis BCG ATCC 35734 cultured in GAST media incubated for 5 days by resazurin microtiter assay. The test is classed as functional. Particulars: BCG ATCC 35734, 120 h, time 5 day. On the technique in general: Resazurin is reduced to fluorescent resorufin, in cell work by metabolically active cells.

Test [2] has the same test system. In words: Antimicrobial activity against Mycobacterium bovis BCG ATCC 35734 cultured in GAST-Fe media incubated for 5 days by resazurin microtiter assay. The test is classed as functional. Particulars: BCG ATCC 35734, 120 h, time 5 day.

For `NC(=S)N1N=C(c2ccccc2O)CC1c1ccc(O)cc1` (stereo not drawn), the MIC90 was found to be 16 mg/L (≈ 51.1 µM) in test [1] and 32 mg/L (≈ 102 µM) in test [2].
For `Oc1ccccc1C1=NNC(c2ccc(Cl)cc2)C1` (stereo not drawn), in that order: 8 mg/L (≈ 29.3 µM) and 32 mg/L (≈ 117 µM).
Take `NC(=S)N1N=C(c2ccccc2O)CC1c1ccccc1` (stereo not drawn): the MIC90 in test [1] is 16 mg/L (≈ 53.8 µM); in test [2] it was 32 mg/L (≈ 108 µM).
With `Oc1ccccc1C1=NNC(c2ccc(Br)cc2)C1` (stereo not drawn), the MIC90 came to 8 mg/L (≈ 25.2 µM) in test [1] and 64 mg/L (≈ 202 µM) in test [2].
